These results are taken from ChEMBL document CHEMBL1131552, “Identification of side chains on 1,2,5-thiadiazole-azacycles optimal for muscarinic m1 receptor activation” (Bioorg Med Chem Lett, 1998).

For assay [1], the target named is T1, Muscarinic acetylcholine receptor M2 (Homo sapiens, UniProt P08172).
T1 sequence (P08172 whole entry): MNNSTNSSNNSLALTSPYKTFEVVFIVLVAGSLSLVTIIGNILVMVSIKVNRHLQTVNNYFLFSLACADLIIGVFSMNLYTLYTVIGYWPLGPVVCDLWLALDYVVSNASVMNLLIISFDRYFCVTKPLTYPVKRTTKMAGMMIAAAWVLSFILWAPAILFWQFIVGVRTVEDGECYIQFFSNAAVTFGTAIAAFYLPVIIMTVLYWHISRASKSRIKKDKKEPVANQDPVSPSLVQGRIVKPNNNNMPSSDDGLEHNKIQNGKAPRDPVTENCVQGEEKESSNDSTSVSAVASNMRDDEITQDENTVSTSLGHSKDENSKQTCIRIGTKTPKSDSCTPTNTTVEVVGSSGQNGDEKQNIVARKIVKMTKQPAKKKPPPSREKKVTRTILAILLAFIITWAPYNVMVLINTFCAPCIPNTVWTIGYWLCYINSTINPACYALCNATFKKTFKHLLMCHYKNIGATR
Description: Stimulation of cAMP in CHO cells expressing human m2 receptor

The target in assay [2] is T2, Muscarinic acetylcholine receptor M1 (Homo sapiens, UniProt P11229).
T2 sequence (P11229 whole entry): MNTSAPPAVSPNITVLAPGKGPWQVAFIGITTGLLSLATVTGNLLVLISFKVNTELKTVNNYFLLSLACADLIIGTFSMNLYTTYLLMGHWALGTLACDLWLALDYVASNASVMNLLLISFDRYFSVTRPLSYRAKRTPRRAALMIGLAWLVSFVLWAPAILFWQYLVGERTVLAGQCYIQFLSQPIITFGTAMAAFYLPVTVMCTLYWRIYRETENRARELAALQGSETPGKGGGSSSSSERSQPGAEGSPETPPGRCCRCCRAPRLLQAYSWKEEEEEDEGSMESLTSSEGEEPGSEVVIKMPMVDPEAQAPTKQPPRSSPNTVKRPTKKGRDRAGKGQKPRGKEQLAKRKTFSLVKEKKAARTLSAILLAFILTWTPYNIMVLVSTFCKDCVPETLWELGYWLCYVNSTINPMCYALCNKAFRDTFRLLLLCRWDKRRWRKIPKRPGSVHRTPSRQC
Description: Stimulation of phosphoinositide hydrolysis in A9L cells expressing human m1 receptor

Assay [3] concerns the target Muscarinic acetylcholine receptor.
The target of assay [4] is T3, Muscarinic acetylcholine receptor M1 (Homo sapiens) (UniProt P11229).
T3 sequence (whole entry): T2 sequence (P11229 whole entry)
The assay is described as follows: Stimulation of phosphoinositide hydrolysis in BHK cells. In kind it is functional, cell-based.

The nature of assay [5]: Potency ratio of EC50 of the CHO cell lines to that of A9L cell lines was calculated. The assay is classed as functional.
The target of assay [6] is T2, Muscarinic acetylcholine receptor M1. In words: Effective concentration required for stimulation of phosphoinositide hydrolysis in A9L cells expressing human m1 receptor. The assay is classed as functional, cell-based.
In assay [7] the target is Muscarinic acetylcholine receptor. The assay is described as follows: Binding affinity against muscarinic receptor in rat brain membranes using oxotremorine-M as ligand. The assay is classed as cell membranes.

Usually EC50 stands for the concentration that produces a half-maximal response. A high value points to a need for much substance. A word on the IC50: it is the point on the concentration scale where inhibition reaches its midpoint. A high value points to weaker potency in that assay. As to `C(#Cc1ccccc1)COc1nsnc1[C@H]1CN2CCC[C@H]1C2`, the half-maximal effective concentration (EC50) in assay [1] was 0.009 µM; in assay [2] it was 0.0005 µM. This molecule came in with a concentration for half-maximal inhibition (IC50) in assay [3] of 0.0012 µM.

With `C(#Cc1ccccc1)COc1nsnc1C12CN3CC1C2C3`, the half-maximal effective concentration (EC50) in assay [1] came out at 0.779 µM; in assay [2] it was 0.0705 µM. In assay [3], this molecule showed a half-inhibitory concentration (IC50) of 0.014 µM.

`CN1CCC=C(c2nsnc2SCc2ccccc2)C1` returned a 50% inhibitory concentration (IC50) in assay [3] of 0.0059 µM.

On to `C(#Cc1ccccc1)COc1nsnc1C1CN2CCC1CC2` (stereo not given), for which the concentration for a half-maximal effect (EC50) in assay [1] worked out at 0.062 µM; in assay [2] it was 0.0157 µM. This molecule also displayed a half-inhibitory concentration (IC50) in assay [3] of 0.0047 µM.

For the molecule `CCCCCCOc1nsnc1[C@H]1CN2CC[C@H]1C2`, the IC50 in assay [3] was determined as 0.00073 µM.

With `C(#Cc1ccccc1)COc1nsnc1[C@@H]1CN2CCC[C@H]1C2`, the concentration for a half-maximal effect (EC50) in assay [1] was 0.227 µM; in assay [2], 0.0283 µM. In assay [3], this molecule came in with a half-inhibitory concentration (IC50) of 0.066 µM.

For the molecule `CN1CCC=C(c2nsnc2OCCCc2ccccc2)C1`, the IC50 in assay [3] came to 0.013 µM.

In assay [3], `CN1CCC=C(c2nsnc2SCCc2ccccc2)C1` returned a concentration for half-maximal inhibition (IC50) of 0.023 µM.

The molecule `c1ccc(CCCSc2nsnc2[C@H]2CN3CC[C@H]2C3)cc1` returned an IC50 in assay [3] of 0.0017 µM.

In the case of `C(#Cc1ccccc1)CSc1nsnc1[C@@H]1CN2CC[C@H]1C2`, the concentration giving a half-maximal response (EC50) in assay [1] was 0.139 µM; in assay [2] it was more than 0.1 µM. This molecule returned an IC50 in assay [3] of 0.042 µM.

With `C(#Cc1ccccc1)CSc1nsnc1[C@@H]1CN2CCC[C@H]1C2`, the EC50 in assay [1] is more than 10 µM; in assay [2] it was 0.001 µM. In addition, in assay [3], the IC50 worked out at 0.363 µM.

In turn, `CN1CCC=C(c2nsnc2OCCc2ccccc2)C1` displayed an IC50 in assay [3] of 0.015 µM.

`c1ccc(CCCSc2nsnc2[C@H]2CN3CCC[C@H]2C3)cc1` yielded an IC50 in assay [3] of 0.0013 µM.

`CCCCCCOc1nsnc1[C@@H]1CN2CC[C@H]1C2` (stereo in doubt; 26) had an IC50 in assay [3] of 0.006 µM.

`COc1cccc(C#CCO/N=C2\CN3CCC2C3)c1` (stereo not given) displayed a Max PI in assay [4] of 14%. Also, the EC50 in assay [1] was 28 µM; in assay [2], more than 1 µM. In assay [3], this molecule had an IC50 of 0.167 µM.

The molecule `CN1CCC=C(c2nsnc2OCCCCc2ccccc2)C1` had a half-inhibitory concentration (IC50) in assay [3] of 0.02 µM.

Take `COc1nsnc1C1=CCCN(C)C1`: the 50% inhibitory concentration (IC50) in assay [3] was 0.022 µM.

The molecule `CCCCCCOc1nsnc1[C@@H]1CN2CC[C@H]1C2` (stereo in doubt; 13) displayed a concentration for half-maximal inhibition (IC50) in assay [3] of 0.016 µM.

As for `CCOc1nsnc1C1=CCCN(C)C1`, the half-maximal inhibitory concentration (IC50) in assay [3] was 0.0057 µM.

`CCCCCCCCOc1nsnc1C1=CCCN(C)C1` yielded an IC50 in assay [3] of 0.03 µM.

The molecule `c1ccc(CCCSc2nsnc2C2CN3CCC2CC3)cc1` (stereo not given) showed a half-inhibitory concentration (IC50) in assay [3] of 0.014 µM.

In turn, `CCCCCCCOc1nsnc1C1=CCCN(C)C1` yielded an IC50 in assay [3] of 0.0062 µM.

As for `CCCCCOc1nsnc1C1=CCCN(C)C1`, in assay [3], the IC50 came out at 0.002 µM.

With `CCCCCCOc1nsnc1C1CN2CCC1CC2` (stereo not given), in assay [3], the IC50 was determined as 0.0043 µM.

In the case of `CCCCCCOc1nsnc1[C@H]1CN2CCC[C@H]1C2`, in assay [3], the 50% inhibitory concentration (IC50) came out at 0.0012 µM.

For `C(#Cc1ccccc1)COc1nsnc1[C@@H]1CN2CC[C@H]1C2`, the EC50 amounted to 1.1 µM in assay [1] and 0.0673 µM in assay [2]. The same molecule displayed an IC50 in assay [3] of 0.02 µM.

For the molecule `CCCOc1nsnc1C1=CCCN(C)C1`, in assay [3], the 50% inhibitory concentration (IC50) worked out at 0.0016 µM.

`c1ccc(CCCSc2nsnc2[C@@H]2CN3CCC[C@H]2C3)cc1` showed an IC50 in assay [3] of 0.035 µM.

For `C(#Cc1ccccc1)COc1nsnc1[C@H]1CN2CCC[C@@H]1C2`, the EC50 in assay [1] came out at 2.25 µM. This molecule also returned an IC50 in assay [3] of 0.078 µM.

As to `CN1CCC=C(c2nsnc2OCC#Cc2ccccc2)C1`, in assay [5], the Potency ratio was 2. Also, the figures for the EC50 in assay [1] and in assay [2] were 0.24 µM and 0.11 µM, respectively. Moreover, the IC50 in assay [3] was 0.0085 µM.

In assay [3], `CN1CCC=C(c2nsnc2SCCCc2ccccc2)C1` had a half-maximal inhibitory concentration (IC50) of 0.0013 µM.

With `C(#Cc1ccccc1)COc1nsnc1[C@H]1CN2CCC1C2` (stereo not given in full), the EC50 in assay [1] came to 0.011 µM; in assay [2], 0.00099 µM. The same molecule registered an IC50 in assay [3] of 0.0008 µM.

As for `C(#Cc1ccccc1)COc1nsnc1[C@H]1CN2CC[C@@H]1C2`, the EC50 is 1.07 µM in assay [1] and 0.159 µM in assay [2]. The molecule further showed a half-inhibitory concentration (IC50) in assay [3] of 0.041 µM.

With `C(#Cc1ccccc1)CSc1nsnc1[C@H]1CN2CCC[C@H]1C2`, the results for the concentration for a half-maximal effect (EC50) in assay [6] and in assay [1] were 0.0002 µM and 0.002 µM, respectively. The same molecule showed an IC50 in assay [3] of 0.0017 µM.

In assay [7], `C(#Cc1ccccc1)COc1nsnc1[C@@H]1CN2CCC[C@@H]1C2` displayed an IC50 of 0.0034 µM. In assay [1], this molecule registered a concentration for a half-maximal effect (EC50) of 0.029 µM.

For `CN1CCC=C(c2nsnc2OCc2ccccc2)C1`, in assay [3], the 50% inhibitory concentration (IC50) stood at 0.008 µM.

`CCCCCCOc1nsnc1[C@@H]1CN2CCC[C@H]1C2`: the IC50 in assay [3] turned out to be 0.063 µM.
